IC50 growth inhibition data for 114 test systems are collected here from the supplement of paper PMC9673313.

Compound in the test: Clc1ccc2c(N3CCN(CCCN4CCN(c5ccnc6cc(Cl)ccc56)CC4)CC3)ccnc2c1 [piperaquine]
The procedure: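 Kenyan Plasmodium falciparum field isolates (2008-2021) were tested in a SYBR Green I growth-inhibition assay, either immediately ex vivo (fresh samples) or in vitro after culture adaptation. Cultures were at 1% parasitemia and 2% hematocrit, incubated with serial drug dilutions for 72 h at 37 °C (5% O2, 5% CO2), then read by fluorescence. IC50 was fitted by non-linear regression of the dose-response curve.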

With MDH 16/05/150, the IC50 growth inhibition came out at 0.00167 µg/mL. Then KOM 19/12/155, with 0.0208 µg/mL. Then KSI 12/01/224, with 0.0193 µg/mL; and KOM 21/05/0278, with 0.0027 µg/mL; and KDH 11/9/709, with 0.55 µg/mL. For KDH 21/05/0220, the IC50 growth inhibition is 0.0025 µg/mL. In the case of KOM 14/03/189 it was 0.018 µg/mL; in that of KCH 14/03/247, 0.0132 µg/mL; in that of KOM 20/01/0165, 0.0111 µg/mL. Then KDH 21/05/0225, with 0.0071 µg/mL; and KDH 12/11/923, with 0.0145 µg/mL.

As to MDH 19/01/0029, the IC50 growth inhibition worked out at 0.00967 µg/mL.

Consider KOM 20/01/0172, for which the IC50 growth inhibition is 0.0184 µg/mL.

As for KSI 15/04/732, the IC50 growth inhibition stood at 0.0061 µg/mL.

With KSI 19/12/0048, the IC50 growth inhibition is 0.0353 µg/mL. In the case of MGT 14/03/0008 it was 0.0272 µg/mL.

For KDH 19/02/0077, the IC50 growth inhibition came to 0.017 µg/mL. Then KOM 20/03/0184, with 0.0308 µg/mL; and MGT 21/03/0108, with 0.0078 µg/mL; and KOM 20/01/0174, with 0.062 µg/mL. Take KCH 17/09/373: the IC50 growth inhibition stood at 0.00701 µg/mL. Then KSI 15/04/730, with 0.00513 µg/mL. In the case of MGT 18/09/0013 it was 0.00348 µg/mL. Then 601-0260, with 2.46 µg/mL; and KCH 18/07/0001, with 0.0158 µg/mL. KOM 21/05/0280: the IC50 growth inhibition turned out to be 0.0013 µg/mL. In the case of KCH 17/09/372 it was 0.00845 µg/mL. KCH 10/06/119: the IC50 growth inhibition came to 0.0127 µg/mL.

For the test system KSI 14/08/627, the IC50 growth inhibition was 0.00419 µg/mL. For KDH 14/05/1400, the IC50 growth inhibition was determined as 0.027 µg/mL.

Regarding KDH 18/07/0010, the IC50 growth inhibition was found to be 0.0227 µg/mL. In the case of MDH 18/08/004 it was 0.000851 µg/mL; in that of KDH 16/07/1826, 0.0257 µg/mL.

As to KDH 21/05/0230, the IC50 growth inhibition turned out to be 0.127 µg/mL.

Consider KOM 18/07/0005, for which the IC50 growth inhibition turned out to be 0.00889 µg/mL. Turning to KCH 10/06/0122, the IC50 growth inhibition was 0.069 µg/mL. As for KCH 13/1/192, the IC50 growth inhibition worked out at 0.0674 µg/mL. Then KOM 14/04/215, with 0.0255 µg/mL; and MDH 12/01/0063, with 0.012 µg/mL. In the case of MDH 16/08/153 it was 0.00762 µg/mL. In the case of KCH 15/06/316 it was 0.0313 µg/mL; in that of KSI 14/01/474, 0.016 µg/mL. Turning to 601-272, the IC50 growth inhibition was found to be 0.0205 µg/mL.

As for 601-0284, the IC50 growth inhibition came to 0.0176 µg/mL.

In the case of KDH 21/08/0250, the IC50 growth inhibition came to 0.0617 µg/mL.

Turning to KOM 19/01/0053, the IC50 growth inhibition stood at 0.0191 µg/mL. In the case of KOM 21/03/0256 it was 0.0026 µg/mL; in that of KOM 13/07/0006, 0.0108 µg/mL; in that of KSI 21/04/0059, 0.208 µg/mL. Then KOM 13/10/0073 D28/0, with 0.015 µg/mL. Consider KOM 19/11/0147, for which the IC50 growth inhibition was 0.0105 µg/mL. Turning to 601-262, the IC50 growth inhibition was determined as 0.112 µg/mL. For the test system 601-226, the IC50 growth inhibition worked out at 0.0572 µg/mL. In the case of MGT 21/08/0122 it was 0.0872 µg/mL; in that of KOM 16/07/0611, 0.0143 µg/mL.

MDH 19/01/0031: the IC50 growth inhibition stood at 0.0262 µg/mL. Regarding KCH 14/10/283, the IC50 growth inhibition stood at 0.00595 µg/mL. Take KSI 14/04/534: the IC50 growth inhibition came out at 0.00127 µg/mL.

Regarding KSI 14/03/507, the IC50 growth inhibition stood at 0.00669 µg/mL. Then MDH 12/01/0067, with 0.0107 µg/mL. In the case of KDH 16/07/1824 it was 0.0512 µg/mL; in that of KSI 10/11/118, 0.0157 µg/mL; in that of KSI 18/09/0004, 0.00835 µg/mL. As to KDH 21/02/0173, the IC50 growth inhibition amounted to 0.0368 µg/mL. On to KSI 14/03/504, for which the IC50 growth inhibition is 0.013 µg/mL.

In the case of 601-0157, the IC50 growth inhibition was found to be 0.0068 µg/mL. For the test system KDH 12/10/918, the IC50 growth inhibition turned out to be 0.0132 µg/mL. KOM 13/10/0089: the IC50 growth inhibition is 0.0186 µg/mL. In the case of KDH 12/10/909 it was 0.00983 µg/mL; in that of KOM 13/11/104, 0.0175 µg/mL. In the case of KDH 14/03/1351 it was 0.0107 µg/mL. Then KDH 16/07/1821, with 0.0191 µg/mL; and KSI 16/07/907, with 0.0116 µg/mL; and KDH 21/02/0166, with 0.0768 µg/mL.

In the case of MGT 15/10/104, the IC50 growth inhibition was 0.00335 µg/mL.

As to KSI 12/08/285, the IC50 growth inhibition stood at 0.0196 µg/mL. Take KSI 19/06/0027: the IC50 growth inhibition came to 0.00354 µg/mL. In the case of MGT 15/10/105 it was 0.0197 µg/mL. In the case of KOM 20/02/0178 it was 0.00832 µg/mL; in that of KOM 13/08/0025, 0.0147 µg/mL. In the case of KDH 12/11/928 it was 0.00444 µg/mL; in that of KSI 21/04/0062, 0.0102 µg/mL. With KOM 21/05/0265, the IC50 growth inhibition is 0.0027 µg/mL. Then KOM 16/07/0610, with 0.00766 µg/mL. In the case of KOM 18/11/0045 it was 0.00771 µg/mL; in that of KOM 21/08/0340, 0.0382 µg/mL. As to KOM 21/05/0272, the IC50 growth inhibition was 0.0037 µg/mL. Then 601-0132, with 0.0171 µg/mL. In the case of KCH 10/05/108 it was 0.0451 µg/mL. In the case of KSI 15/09/825 it was 0.0121 µg/mL; in that of MGT 14/07/0033, 0.00335 µg/mL; in that of KDH 21/02/0170, 0.0523 µg/mL. Take MGT 19/11/0063: the IC50 growth inhibition is 0.0136 µg/mL.

Turning to KCH 16/08 369, the IC50 growth inhibition stood at 0.00323 µg/mL.

In the case of KOM 15/05/421 D42, the IC50 growth inhibition was 0.0404 µg/mL.

Consider MGT 19/09/0054, for which the IC50 growth inhibition was determined as 0.0326 µg/mL. In the case of 601-0140 it was 0.0251 µg/mL; in that of KOM 13/07/009, 0.0226 µg/mL. For the test system MGT 14/03/0015, the IC50 growth inhibition came to 0.00779 µg/mL. In the case of MGT 21/05/115 it was 0.0062 µg/mL. Then KDH 19/12/0156, with 0.0196 µg/mL. In the case of KOM 21/05/0271 it was 0.0021 µg/mL.

Take KDH 14/05/1396: the IC50 growth inhibition was 0.0267 µg/mL.

Take KCH 10/05/113: the IC50 growth inhibition is 0.00858 µg/mL. Then KOM 14/04/222, with 0.0193 µg/mL; and KDH 21/02/0197, with 0.0184 µg/mL.

On to KCH 14/10/281, for which the IC50 growth inhibition was 0.00857 µg/mL. In the case of 601-0023 it was 0.0124 µg/mL; in that of MDH 10/10/0020, 0.0168 µg/mL. In the case of KDH 16/07/1823 it was 0.0202 µg/mL.

For 601-0154, the IC50 growth inhibition came out at 0.0252 µg/mL. In the case of KCH 19/04/0010 it was 0.00314 µg/mL; in that of KSI 10/09/099, 0.0338 µg/mL; in that of KOM 21/02/0228, 0.0626 µg/mL.
